From patent US7754880B2, “Uracils having a herbicidal activity” (Isagro Ricerca S.r.l., priority 2002, dated 2010) come the findings set out here.

A word on the melting point: it is the temperature of the solid-liquid transition. Take `COC(=O)/C=C(\COc1cc(-n2c(=O)cc(C(F)(F)F)n(C)c2=O)c(Cl)cc1Cl)OC` [Compound No 3, methyl (2E)-4-{2,4-dichloro-5-[1,2,3,6-tetrahydro-3-methyl-2,6-dioxo-4-(trifluoromethyl)pyrimidin-1-yl]phenoxy}-3-methoxybut-2-enoate]: the melting point turned out to be 116 °C.
In the case of `Cn1c(C(F)(F)F)cc(=O)n(-c2cc(OCc3nnn[nH]3)c(Cl)cc2F)c1=O` [Compound No 7, 3-[4-chloro-2-fluoro-5-(tetrazol-5-ylmethoxy)phenyl]-1-methyl-6-(trifluoromethyl)-2,4(1H,3H)-pyrimidinedione], the melting point is 82 °C.
The same measure for `CCn1nnc(COc2cc(-n3c(=O)cc(C(F)(F)F)n(C)c3=O)c(F)cc2Cl)n1` [Compound No 8, 3-{4-chloro-2-fluoro-5-[(2-ethyl-2H-tetrazol-5-yl)methoxy]phenyl}-1-methyl-6-(trifluoromethyl)-2,4(1H,3H)-pyrimidinedione]: 126 °C; for `CCn1nnnc1COc1cc(-n2c(=O)cc(C(F)(F)F)n(C)c2=O)c(F)cc1Cl` [Compound No 9, 3-{4-chloro-2-fluoro-5-[(1-ethyl-1H-tetrazol-5-yl)methoxy]phenyl}-1-methyl-6-(trifluoromethyl)-2,4(1H,3H)-pyrimidinedione]: 60 °C; for `COC(=O)Cn1nnnc1COc1cc(-n2c(=O)cc(C(F)(F)F)n(C)c2=O)c(F)cc1Cl` [Compound No 10, methyl [5-({2-chloro-4-fluoro-5-[1,2,3,6-tetrahydro-3-methyl-2,6-dioxo-4-(trifluoromethyl)pyrimidin-1-yl]phenoxy}methyl)-1H-tetrazol-1-yl]acetate]: 243 °C.
The same measure for `COC(=O)Cn1nnc(COc2cc(-n3c(=O)cc(C(F)(F)F)n(C)c3=O)c(F)cc2Cl)n1` [Compound No 11, methyl [5-({2-chloro-4-fluoro-5-[1,2,3,6-tetrahydro-3-methyl-2,6-dioxo-4-(trifluoromethyl)pyrimidin-1-yl]phenoxy}methyl)-2H-tetrazol-2-yl]acetate]: 65 °C; for `Cn1nnnc1-c1cc(-n2c(=O)cc(C(F)(F)F)n(C)c2=O)ccc1Cl` [Compound No 14, 3-[4-chloro-3-(1-methyl-1H-tetrazol-5-yl)phenyl]-1-methyl-6-(trifluoromethyl)-2,4(1H,3H)-pyrimidinedione]: 185 °C; for `CCn1nnc(-c2cc(-n3c(=O)cc(C(F)(F)F)n(C)c3=O)ccc2Cl)n1` [Compound No 15, 3-[4-chloro-3-(2-ethyl-2H-tetrazol-5-yl)phenyl]-1-methyl-6-(trifluoromethyl)-2,4(1H,3H)-pyrimidinedione]: 136 °C.
The value for `CCn1nnnc1-c1cc(-n2c(=O)cc(C(F)(F)F)n(C)c2=O)ccc1Cl` [Compound No 16, 3-[4-chloro-3-(1-ethyl-1H-tetrazol-5-yl)phenyl]-1-methyl-6-(trifluoromethyl)-2,4(1H,3H)-pyrimidinedione] was 202 °C; that for `COC(=O)Cn1nnc(-c2cc(-n3c(=O)cc(C(F)(F)F)n(C)c3=O)ccc2Cl)n1` [Compound No 17, methyl (5-{2-chloro-5-[1,2,3,6-tetrahydro-3-methyl-2,6-dioxo-4-(trifluoromethyl)pyrimidin-1-yl]phenyl}-2H-tetrazol-2-yl)acetate] was 172 °C; that for `COC(=O)Cn1nnnc1-c1cc(-n2c(=O)cc(C(F)(F)F)n(C)c2=O)ccc1Cl` [Compound No 18, methyl (5-{2-chloro-5-[1,2,3,6-tetrahydro-3-methyl-2,6-dioxo-4-(trifluoromethyl)pyrimidin-1-yl]phenyl}-1H-tetrazol-1-yl)acetate] was 130 °C.
The compound `Cn1nnc(COc2cc(-n3c(=O)cc(C(F)(F)F)n(C)c3=O)c(F)cc2Cl)n1` [Compound No 42, 3-{4-chloro-2-fluoro-5-[(2-methyl-2H-tetrazol-5-yl)methoxy]phenyl}-1-methyl-6-(trifluoromethyl)-2,4(1H,3H)-pyrimidinedione] had a melting point of 167 °C.
In turn, `Cn1c(C(F)(F)F)cc(=O)n(-c2cc(Oc3nnc(C(F)(F)F)s3)c(Cl)cc2Cl)c1=O` [Compound No 84, 3-(2,4-dichloro-5-{[5-(trifluoromethyl)-1,3,4-thiadiazol-2-yl]oxy}phenyl)-1-methyl-6-(trifluoromethyl)-2,4(1H,3H)-pyrimidinedione] registered a melting point of 90 °C.
The same measure for `CCOC(=O)/C=C(\COc1cc(-n2c(=O)cc(C(F)(F)F)n(C)c2=O)c(Cl)cc1Cl)OC` [Compound No 99, ethyl (2E)-4-{2,4-dichloro-5-[1,2,3,6-tetrahydro-3-methyl-2,6-dioxo-4-(trifluoromethyl)pyrimidin-1-yl]phenoxy}-3-methoxybut-2-enoate]: 128 °C.
The same measure for `CCOC(=O)/C=C(\COc1cc(-n2c(=O)cc(C(F)(F)F)n(C)c2=O)c(F)cc1Cl)OC` [Compound No 100, ethyl (2E)-4-{2-chloro-4-fluoro-5-[1,2,3,6-tetrahydro-3-methyl-2,6-dioxo-4-(trifluoromethyl)pyrimidin-1-yl]phenoxy}-3-methoxybut-2-enoate]: 78 °C; for `COCn1nnc(-c2cc(-n3c(=O)cc(C(F)(F)F)n(C)c3=O)ccc2Cl)n1` [Compound No 101, 3-{4-chloro-3-[2-(methoxymethyl)-2H-tetrazol-5-yl]phenyl}-1-methyl-6-(trifluoromethyl)-2,4(1H,3H)-pyrimidinedione]: 80 °C; for `COCn1nnnc1-c1cc(-n2c(=O)cc(C(F)(F)F)n(C)c2=O)ccc1Cl` [Compound No 102, 3-{4-chloro-3-[1-(methoxymethyl)-1H-tetrazol-5-yl]phenyl}-1-methyl-6-(trifluoromethyl)-2,4(1H,3H)-pyrimidinedione]: 182 °C.
The value for `CCOCn1nnc(-c2cc(-n3c(=O)cc(C(F)(F)F)n(C)c3=O)ccc2Cl)n1` [Compound No 103, 3-{4-chloro-3-[2-(ethoxymethyl)-2H-tetrazol-5-yl]phenyl}-1-methyl-6-(trifluoromethyl)-2,4(1H,3H)-pyrimidinedione] was 140 °C; that for `CCOCn1nnnc1-c1cc(-n2c(=O)cc(C(F)(F)F)n(C)c2=O)ccc1Cl` [Compound No 104, 3-{4-chloro-3-[1-(ethoxymethyl)-1H-tetrazol-5-yl]phenyl}-1-methyl-6-(trifluoromethyl)-2,4(1H,3H)-pyrimidinedione] was 157 °C; that for `C=CCn1nnc(-c2cc(-n3c(=O)cc(C(F)(F)F)n(C)c3=O)ccc2Cl)n1` [Compound No 105, 3-[3-(2-allyl-2H-tetrazol-5-yl)-4-chlorophenyl]-1-methyl-6-(trifluoromethyl)-2,4(1H,3H)-pyrimidinedione] was 116 °C.
`C=CCn1nnnc1-c1cc(-n2c(=O)cc(C(F)(F)F)n(C)c2=O)ccc1Cl` [Compound No 106, 3-[3-(1-allyl-1H-tetrazol-5-yl)-4-chlorophenyl]-1-methyl-6-(trifluoromethyl)-2,4(1H,3H)-pyrimidinedione] returned a melting point of 160 °C.
For `Cc1cc(COc2cc(-n3c(=O)cc(C(F)(F)F)n(C)c3=O)c(F)cc2Cl)on1` [Compound No 107, 3-{4-chloro-2-fluoro-5-[(3-methylisoxazol-5-yl)methoxy]phenyl}-1-methyl-6-(trifluoromethyl)-2,4(1H,3H)-pyrimidinedione], the melting point was determined as 154 °C.
The compound `Cc1cc(COc2cc(-n3c(=O)cc(C(F)(F)F)n(C)c3=O)c(Cl)cc2Cl)on1` [Compound No 108, 3-{2,4-dichloro-5-[(3-methylisoxazol-5-yl)methoxy]phenyl}-1-methyl-6-(trifluoromethyl)-2,4(1H,3H)-pyrimidinedione] came in with a melting point of 185 °C.
The value for `Cc1nc(COc2cc(-n3c(=O)cc(C(F)(F)F)n(C)c3=O)c(Cl)cc2Cl)no1` [Compound No 112, 3-{2,4-dichloro-5-[(5-methyl-1,2,4-oxadiazol-3-yl)methoxy]phenyl}-1-methyl-6-(trifluoromethyl)-2,4(1H,3H)-pyrimidinedione] was 167 °C; that for `Cn1c(C(F)(F)F)cc(=O)n(-c2ccc(Cl)c(-c3nc4ccccc4s3)c2)c1=O` [Compound No 113, 3-[3-(1,3-benzothiazol-2-yl)-4-chlorophenyl]-1-methyl-6-(trifluoromethyl)-2,4(1H,3H)-pyrimidinedione] was 189 °C; that for `Cn1c(C(F)(F)F)cc(=O)n(-c2ccc(Cl)c(-c3nc4ccccc4o3)c2)c1=O` [Compound No 114, 3-[3-(1,3-benzoxazol-2-yl)-4-chlorophenyl]-1-methyl-6-(trifluoromethyl)-2,4(1H,3H)-pyrimidinedione] was 183 °C.
The same measure for `Cn1c(C(F)(F)F)cc(=O)n(-c2cc(OCc3ncon3)c(Cl)cc2F)c1=O` [Compound No 117, 3-[4-chloro-2-fluoro-5-(1,2,4-oxadiazol-3-ylmethoxy)phenyl]-1-methyl-6-(trifluoromethyl)-2,4(1H,3H)-pyrimidinedione]: 122 °C; for `Cn1c(C(F)(F)F)cc(=O)n(-c2ccc(Cl)c(-c3nnn(C(C)(C)C)n3)c2)c1=O` [Compound No 118, 3-[3-(2-tert-butyl-2H-tetrazol-5-yl)-4-chlorophenyl]-1-methyl-6-(trifluoromethyl)-2,4(1H,3H)-pyrimidinedione]: 154 °C.
On to `Cn1c(C(F)(F)F)cc(=O)n(-c2cc(-c3nc4ccccc4s3)c(Cl)cc2F)c1=O` [Compound No 119, 3-[5-(1,3-benzothiazol-2-yl)-4-chloro-2-fluorophenyl]-1-methyl-6-(trifluoromethyl)-2,4(1H,3H)-pyrimidinedione], for which the melting point came out at 211 °C.
On to `Cn1c(C(F)(F)F)cc(=O)n(-c2cc(-c3nc4ccccc4o3)c(Cl)cc2F)c1=O` [Compound No 122, 3-[5-(1,3-benzoxazol-2-yl)-4-chloro-2-fluorophenyl]-1-methyl-6-(trifluoromethyl)-2,4(1H,3H)-pyrimidinedione], for which the melting point stood at 178 °C.
